Blank lines part the entries; values can stand above or below the molecule they belong to.
How the values were obtained:
Type in all cases: cell-based, human
MeWo melanoma cell line = test: SRB cell viability assay in MeWo cells; settings: SRB, 72 h; for EC50: Homo sapiens, read-out: EC50 useful in diminishing cell viability; for effect on cell viability: at least until 40 µM
Protocol: (§1) In preliminary experiments, the evaluation of cell viability at different time after compound administration was carried out with sulforhodamine B (SRB) assay. Indeed, after 24-, 48-, and 72-h treatment, an evident time dependence in the inhibition of cell growth was registered (data not shown). Thus, to evaluate A375 and MeWo cell viability, we decided to perform further SRB experiments with each compound only after 72 h.
(§2) Human MeWo (HTB-65) and A375 (CRL-1619) melanoma cell lines as well as the normal human epidermal melanocyte (NHEM) (PCS-200-013) cell line (ATCC, Manassas, VA, USA) were cultured at 37 °C under 5% CO2 in a humidified atmosphere. Roswell Park Memorial Institute 1640 medium (RPMI, Gibco, Ref.21875, Thermo Scientific, Waltham, MA, USA) was used to culture MeWo cells, while Dulbecco’s Modified Eagle Medium (DMEM, Gibco, Ref. 61965, Thermo Scientific, Waltham, MA, USA) was used for A375 and NHEM cell lines. The culture media were supplemented with 10% fetal bovine serum (FBS, Gibco, Thermo Scientific, Waltham, MA, USA) plus 1% Antibiotic Antimycotic Solution (Gibco, Thermo Scientific). The MEK1 inhibitor U0126 (CAY-70970) and the PI3K inhibitor LY294002 (CAY-70920) were provided by Cayman Chemical, Ann Arbor, MI, USA.
(§3) Melanoma MeWo and A375 cells or NHEM were seeded in 96-well plates (5.0 × 10^3 cells/well for MeWo cells and 2.9 × 10^3 cells/well for A375 or NHEM). After 24-h culture, the cells were treated with different concentrations of compounds 1–7. After 72-h treatment, the cells were fixed by adding 25 µL/well of 50% (w/v) TCA directly into the culture medium. The plates were incubated at 4 °C for 1 h, washed four times with ddH2O, and dried at RT. Staining was performed by adding 50 µL/well of 0.04% (w/v) sulforhodamine B (SRB) sodium salt solution (Sigma-Aldrich, Milan, Italy). After 1-h incubation at RT, the plates were rinsed with 1% HAc and air-dried. SRB was solubilized in a 10 mM Tris-base solution pH 10.5 and Abs492 measured in the plate reader TECAN NanoQuant Infinite M200 Pro (Tecan Group Ltd., Männedorf, Switzerland). Six replicates for each condition/data point were performed.

A375 melanoma cell line = test: SRB cell viability assay in A375 cells; settings: for EC50: Homo sapiens, A-375, read-out: half maximal effective concentration (EC50) able to reduce cell viability; for EC50 / effect on cell viability / A375 cell viability, inhibitor administered alone: A375, SRB, 72 h; for effect on cell viability: at least until 40 µM; for potentiation of the decrease of A375 cell viability induced by 20 µM salviolone or cryptotanshinone: 10 µM inhibitor added 2 h before the diterpene; for A375 cell viability, inhibitor administered alone: concentration-dependent
Protocol: as §1, §2, §3

pERK1/2 = test: Immunoblot of pERK1/2 in A375 cells; settings: 10 µM U0126 with compound 4 or 7 at 20 µM
Protocol: (§4) A375 cells were seeded in 6 cm Petri dishes (190 300 cell/dish) and treated with different compounds at 10 or 20 μM. After 48- or 72-h treatment, the cells were scraped using warm 1× sample buffer (2% SDS, 10% glycerol, 50 mM Tris-HCl, 1.75% β-mercaptoethanol, and bromophenol blue) and boiled at 99 °C for 10 min. Total protein extracts were kept at −80 °C until use.
(§5) Protein extracts were analyzed with a 7.5 or 10% polyacrylamide SDS-PAGE and transferred to a polyvinylidene difluoride membrane (PVDF, Thermo Fisher Scientific, Waltham, MA, USA). The membranes were blocked at RT for 1 h with TBST buffer (10 mM Tris-HCl pH 7.5, 100 mM NaCl, 0.1% Tween20) containing 4% Milk (Formulat). Then, they were incubated on a shaker, overnight (ON) at 4 °C, with 5% BSA solution containing primary antibodies against p-Tyr705-STAT3 (#9145, 1:1000), pRb (#8516, 1:2000), pERK (#4370, 1:1000), pAkt (#4060, 1:2000), pSer15-P53 (#9286, 1:2000) (Cell Signaling Technology, Danvers, […], USA), Akt (GTX121937, 1:3000), ERK (GTX134452, 1:6000), Cyclin A2 (GTX-103042, 1:3000), p-Thr160Cdk2 (GTX-133862, 1:3000), p21 (GTX-629543, 1:3000) (Genetex, Alton Pkwj Irvine, CA, USA), p53 (Sc-263, 1:1000), STAT3 (Sc-482, 1:1000), and p-Ser727-STAT3 (Sc-136193, 1:1000) (Santa Cruz Biotechnology, Dallas, TX, USA). The membranes were washed three times with TBST buffer for 30 min and then incubated for 1 h with a horseradish-peroxidase-conjugated secondary antibody (anti-rabbit 1:6000, Genetex), (anti-mouse, 1:4000, Cell Signaling Technology, Danvers, […], USA). They were washed another three times for 30 min with TBST buffer. All protein extracts were normalized with a β-actin protein antibody (GTX-124214, 1:10,000; Genetex, Alton Pkwj Irvine, CA, USA). Immuno-detection was carried out with an ECL kit (GE-Healthcare, Little Chalfont, UK), and the chemiluminescence signals were detected with ChemiDoc (Bio-Rad, Hercules, CA, USA).

pAkt = test: Immunoblot of pAkt in A375 cells; settings: 10 µM LY294002 with compound 7 or 4 at 20 µM
Protocol: as §4, §5

EC50 (MeWo melanoma cell line): 2 µM | EC50 (A375 melanoma cell line): ~1 µM
SMILES: Cc1coc2c1C(=O)C(=O)c1c-2ccc2c1CCCC2(C)C [Compound 1, tanshinone IIA]

SMILES: Cc1coc2c1C(=O)C(=O)c1c-2ccc2c1[C@@H](O)CCC2(C)C [Compound 2, 1α-hydroxytanshinone]
effect on cell viability (MeWo melanoma cell line): ineffective | effect on cell viability (A375 melanoma cell line): ineffective

SMILES: Cc1coc2c1C(=O)C(=O)c1c-2ccc2c1C(=O)CCC2(C)C [Compound 3, 1-oxotanshinone]
effect on cell viability (MeWo melanoma cell line): ineffective | effect on cell viability (A375 melanoma cell line): ineffective

EC50 (MeWo melanoma cell line): 45 µM | EC50 (A375 melanoma cell line): ~42 µM
SMILES: C[C@H]1COC2=C1C(=O)C(=O)c1c2ccc2c1[C@H](O)CCC2(C)C [Compound 5, 1β-hydroxycryptotanshinone]
activity rating for inhibition of melanoma cell viability (A375 melanoma cell line; A375 and MeWo, SRB): poorly active

SMILES: CC1COc2c1c(=O)oc(=O)c1c3c(ccc21)C(C)(C)CCC3O (stereo not drawn) [Compound 6, 1α-hydroxyanhydride-16R-cryptotanshinone]
effect on cell viability (MeWo melanoma cell line): ineffective | effect on cell viability (A375 melanoma cell line): ineffective

SMILES: N#CC(=C(/N)Sc1ccccc1N)/C(C#N)=C(/N)Sc1ccccc1N [Compound U0126, reference compound]
potentiation of the decrease of A375 cell viability induced by 20 µM salviolone or cryptotanshinone (A375 melanoma cell line): did not potentiate | A375 cell viability, inhibitor administered alone (A375 melanoma cell line): inhibited | pERK1/2 expression level on co-administration (pERK1/2): strongly inhibited

SMILES: O=c1cc(N2CCOCC2)oc2c(-c3ccccc3)cccc12 [LY294002, reference compound]
pAkt expression level on co-administration (pAkt): inhibition | potentiation of the decrease of A375 cell viability induced by 20 µM salviolone or cryptotanshinone (A375 melanoma cell line): did not potentiate | A375 cell viability, inhibitor administered alone (A375 melanoma cell line): inhibited
